From the OPERA property sets (Mansouri et al. 2018)

Conditions: for log10 BCF / log10 biotransformation half-life (days): fish

Structure (SMILES)	boiling point	melting point	further results
CCC(C)(CC)CC	118 °C	-90.9 °C	log10 vapour pressure (mmHg): 1.36
C[N+](C)(C)CCOC(=O)CCC(=O)OCC[N+](C)(C)C.[Br-].[Br-]		225 °C	
COc1ccccc1C(=O)O		101 °C	log10 vapour pressure (mmHg): -4.8; ready biodegradability: readily biodegradable
Clc1ccc(Oc2ccc(Cl)c(Cl)c2)cc1			log10 vapour pressure (mmHg): -3.98
Fc1cc(F)c(F)nc1F	102 °C		
Cc1coc(C)n1	108 °C		
CCCC(=NOCC)C1=C(O)CC(C2CCCSC2)CC1=O (centres undefined)		41 °C	log10 vapour pressure (mmHg): -7.12
Cc1cc(Br)ccc1[N+](=O)[O-]		78 °C	
CCOC(=O)C(NC(C)=O)C(=O)OCC		96.3 °C	
COC1=CC(=O)C=C(OC)C1=O		256 °C	
CCCC(Cl)CCl (centres undefined)	148 °C		
C=C(C)CC(C)O (centres undefined)	129 °C		
CCCC(=O)OCC	122 °C	-98 °C	log10 Koa: 3.56; log10 vapour pressure (mmHg): 1.11
Brc1ccsc1Br	218 °C	-17.5 °C	
C=C(C)c1ccccc1	165 °C	-23.2 °C	log10 vapour pressure (mmHg): 0.279; ready biodegradability: not readily biodegradable; log10 BCF: 1.8; log10 biotransformation half-life (days): -0.71
C=COCC(F)(F)F	42.5 °C		
CCCCCCCCC=O	191 °C		log10 Henry constant (atm·m³/mol): -3.13; log10 vapour pressure (mmHg): -0.432
CC(=O)OO	110 °C	-0.2 °C	log10 Henry constant (atm·m³/mol): -5.67; log10 vapour pressure (mmHg): 1.16
Fc1ccc(F)c(F)c1	90 °C		
CCNC(=O)C(=O)NCC		175 °C	
O=C1OS(=O)(=O)c2ccccc21		130 °C	

Structure (SMILES)	boiling point	melting point	further results
c1ccc(Nc2ccc3ccccc3c2)cc1	396 °C	108 °C	ready biodegradability: not readily biodegradable; log10 BCF: 2.37; log10 biotransformation half-life (days): -0.41
S=C1SCCS1	307 °C	35 °C	
Cc1cc(NS(=O)(=O)c2ccc(N)cc2)n(-c2ccccc2)n1		195 °C	
CC(F)=C(Cl)Cl	78 °C		
O=C(O)CCC(=O)c1ccc(C2CCCCC2)c(Cl)c1		163 °C	
Clc1ccc2ccc(Cl)c(Cl)c2c1Cl			log10 Koa: 8.65
Cc1ccc(N=C=O)cc1N=C=O	251 °C	20.5 °C	log10 vapour pressure (mmHg): -2.1; ready biodegradability: not readily biodegradable
Cc1cc(O)c([N+](=O)[O-])cc1Cl		133 °C	log10 vapour pressure (mmHg): -3.07
O=C1CCCCCN1	270 °C	69.3 °C	log10 vapour pressure (mmHg): -2.8; ready biodegradability: readily biodegradable
Clc1ccc(CSc2ccc(Cl)cc2)cc1		75 °C	
Cc1ccc(CN)cc1	195 °C	12.5 °C	
O=COC1CCCCC1	163 °C		
CCCOC(=O)c1ccc(N)cc1		75 °C	
Oc1ccc2cccc(O)c2c1		180 °C	
O=C(N[C@@H](Cc1ccccc1)C(=O)O)OCc1ccccc1		88.5 °C	
CCN(CC)CCOc1ccc(C(O)(Cc2ccc(Cl)cc2)c2ccc(C)cc2)cc1 (centres undefined)		103 °C	
CCC(C(N)=O)n1nc2ccccc2n1 (centres undefined)		128 °C	
C=CCI	103 °C	-99.3 °C	
Cc1ccc(N)c(N)c1	265 °C	89.5 °C	log10 vapour pressure (mmHg): -3.2
CC#CC#CC	130 °C	67.8 °C	
COC(=O)CCCl	156 °C		

Structure (SMILES)	boiling point	melting point	further results
CON(C)C(=O)Nc1ccc(Cl)cc1		81.5 °C	log10 Koc (L/kg): 2.1; log10 vapour pressure (mmHg): -3.82; log10 BCF: 1.15
CNc1ccc2oc(C[C@@H]3OC4(CC[C@@H]3C)O[C@H](C(C)C(=O)c3ccc[nH]3)[C@H](C)C[C@H]4C)nc2c1C(=O)O (some centres undefined)		182 °C	
CC=C1CC2C=CC1C2 (centres undefined)	146 °C		ready biodegradability: not readily biodegradable; log10 BCF: 2.04; log10 biotransformation half-life (days): -0.56
CO[C@@H]1[C@H](OC(=O)/C=C/C=C/C=C/C=C/C(=O)O)CC[C@]2(CO2)[C@H]1[C@@]1(C)O[C@@H]1CC=C(C)C		194 °C	
CCCCCCCCCCCCCCCC(=O)OCCCC		16.9 °C	
c1ccc2c(c1)CCCN2	251 °C	20 °C	
CN(C)CCCO	164 °C		
Nc1c(Oc2ccc(Br)cc2)cc(O)c2c1C(=O)c1ccccc1C2=O			ready biodegradability: not readily biodegradable; log10 BCF: 2.05
CCN(CCO)c1ccccc1	268 °C	37 °C	
COc1cc(C=C2CCCC(=Cc3ccc(O)c(OC)c3)C2=O)ccc1O		178 °C	
CCOc1ccc([N+](=O)[O-])cc1N		96.5 °C	
Clc1cc2c(Cl)cc(Cl)c(Cl)c2c(Cl)c1Cl			log10 Koa: 9.67; log10 vapour pressure (mmHg): -6.46
COc1ccc2c(c1O)[C@]13CCN(C)[C@H](C2)[C@@H]1C=CC(=O)C3		152 °C	
Nc1c([N+](=O)[O-])cc(Cl)cc1[N+](=O)[O-]		147 °C	
N#Cc1ccccc1Br	252 °C	55.5 °C	
O=Cc1ccccn1	180 °C		
CN(C)c1cccc2c(S(=O)(=O)Cl)cccc12		70 °C	
COc1ccc(C(=O)O)cc1O		252 °C	
O=CCCCl	130 °C		
CC1=CC(=O)C(C(C)C)CC1 (centres undefined)	233 °C		
